Source: patent US9581606B2, “Method for determining depression, kit for analyzing serotonin transporter, and kit for analyzing ubiquitinated serotonin transporter in blood” (MEIJO UNIVERSITY, priority 2011, dated 2017)
Where a SMILES comes first, the peptide text is derived from it. The star is where a group is joined. Cbz = O=C(OCc1ccccc1)*

Tests used:
[1] = tested on: ubiquitinated serotonin transporter protein; assay: Expression amount of ubiquitinated serotonin transporter protein in established lymphocytes (UBIQAPTURE-Q kit, Western blotting); format: cell-based, human; settings: MG132 20 μM, 4 hours
Method: The mouse brain sample, cells, and established lymphocytes were subjected to ultrasonic fragmentation at 4° C. using a sonicator in a lysis buffer [20 mM Tris-HCl, 150 mM NaCl, 50 mM NaF, 1 mM EDTA, 1 mM EGTA, 1% (w/v) TRITONX-100, 1 mM sodium orthovanadate, 0.1% (w/v) SDS, 1% (w/v) sodium deoxycholate, 0.5 mM dithiothreitol, 10 mM sodium pyrophosphate decahydrate, 1 mM phenylmethylsulfonyl fluoride, 10 μg/mL aprotinin, 10 μg/mL leupeptin, and 10 μg/mL pepstatin (pH 7.4)], and thus a homogenate was obtained through these operations. The homogenate was centrifuged for 20 minutes at 4° C. and 13000×g, and the supernatant thus obtained was used. A sample buffer [0.125 M Tris-HCl (pH 6.8), 2% (w/v) SDS, 5% (w/v) glycerol, 0.002% (w/v) bromophenol blue, and 5% (w/v) 2-mercaptoethanol] was added to each of the supernatant samples whose protein content had been adjusted, and then boiled at 95° C. for 5 minutes. Thereafter, the protein (20 μg) was subjected to electrophoresis using a 10% polyacrylamide gel, the protein was transferred to a polyvinylidene difluoride (PVDF) membrane (Millipore Corporation, Billerica, Mass., USA), and blocked using Detector Block Kit (Kirkegaard and Perry Laboratories, Gaithersburg, Md., USA). […] The luminescence due to the immune complex was detected using ECL (GE Healthcare Biosciences, Piscataway, N.J., USA), which is a Western blotting detection reagent, and the expression amount was calculated by the image analysis of the luminescence intensity. […]
According to the procedure in the above-described A (5), the ubiquitinated protein was isolated from the homogenate homogenized with a lysis buffer using UBIQAPTURE-Q kit (Enzo Life Sciences International, Inc, Plymouth Meeting, Pa.), and the ubiquitinated serotonin transporter protein was detected by Western blotting under the same conditions as in the A (5). […]

[2] = tested on: serotonin transporter protein; assay: Expression amount of serotonin transporter protein in established lymphocytes (Western blotting); format: cell-based, human; settings: for expression amount of the serotonin transporter: MG132 20 μM, 4 hours, control = healthy subjects without MG132
Method: The mouse brain sample, cells, and established lymphocytes were subjected to ultrasonic fragmentation at 4° C. using a sonicator in a lysis buffer [20 mM Tris-HCl, 150 mM NaCl, 50 mM NaF, 1 mM EDTA, 1 mM EGTA, 1% (w/v) TRITONX-100, 1 mM sodium orthovanadate, 0.1% (w/v) SDS, 1% (w/v) sodium deoxycholate, 0.5 mM dithiothreitol, 10 mM sodium pyrophosphate decahydrate, 1 mM phenylmethylsulfonyl fluoride, 10 μg/mL aprotinin, 10 μg/mL leupeptin, and 10 μg/mL pepstatin (pH 7.4)], and thus a homogenate was obtained through these operations. The homogenate was centrifuged for 20 minutes at 4° C. and 13000×g, and the supernatant thus obtained was used. A sample buffer [0.125 M Tris-HCl (pH 6.8), 2% (w/v) SDS, 5% (w/v) glycerol, 0.002% (w/v) bromophenol blue, and 5% (w/v) 2-mercaptoethanol] was added to each of the supernatant samples whose protein content had been adjusted, and then boiled at 95° C. for 5 minutes. Thereafter, the protein (20 μg) was subjected to electrophoresis using a 10% polyacrylamide gel, the protein was transferred to a polyvinylidene difluoride (PVDF) membrane (Millipore Corporation, Billerica, Mass., USA), and blocked using Detector Block Kit (Kirkegaard and Perry Laboratories, Gaithersburg, Md., USA). A primary antibody (anti-SERT) (Millipore, Billerica, Mass.) against the serotonin transporter protein was added to the PVDF membrane, allowed to stand overnight in a refrigerator (4° C.), and then a secondary antibody (HRP-conjugated anti-rabbit IgG) (Kirkegaard and Perry Laboratories) was added, and allowed to stand at room temperature for 3 hours. The luminescence due to the immune complex was detected using ECL (GE Healthcare Biosciences, Piscataway, N.J., USA), which is a Western blotting detection reagent, and the expression amount was calculated by the image analysis of the luminescence intensity.
Subsequently, in order to determine the expression amount of the β-actin protein as the endogenous reference material, stripping was carried out, a primary antibody (anti-β-actin) (Santa Cruz Biotechnology, Santa Cruz, Calif.) was added, and incubated. In the result thus obtained, the band of the serotonin transporter protein was corrected by the band of the β actin protein, and the expression amount to the control group was expressed in terms of the percentage (%).
Each of the blood samples aseptically collected from the above objects was diluted two folds with a sterile normal saline solution. Subsequently, the diluted blood sample was quietly poured into the tube containing 3.5 ml of the Ficoll-Paque liquid (General Electric Company, Uppsala, Sweden), and centrifuged at 600×g for 30 minutes. […]

wild type C57BL/6J mouse = assay: Forced swimming test, control mouse; format: in vivo
Method: (§1) Experimental equipment and procedure: the experimental equipment was a water tank (diameter 15 cm×height 20 cm) containing water (water temperature about 22° C.×depth 13 cm). The wild type C57BL/6J mouse as the control or the model mouse was placed in the water tank, and immediately after that, the immobility time was measured using Scanet MV-10AQ (Brainscience Idea, Co., Ltd. Osaka, Japan) for 10 minutes at intervals of 1 minute.
(§2) 5 or 10 mg/kg sertraline (Pfizer, Groton, CT) suspended in 0.3% carboxymethyl cellulose sodium, and 10 or 20 mg/kg imipramine (Sigma, St. Louis, Mo.) dissolved in a normal saline solution were intraperitoneally administered 30 minutes before the main test. As the control, the solvent was intraperitoneally administered.

[3] = tested on: MAGE-D1 gene-deficient mouse; assay: Forced swimming test, model mouse; format: in vivo; settings: for effect on the increase of the immobility time: forced swimming test (FIG. 1)
From the text: The targeting vector (Stratagene: pBlueScript), which allow homologous recombination between the MAGE-D1 gene (Gene bank: NM_019791.2) exon and the drug (G418)-resistant gene (GenBank: U00004.1), was electroporated into the embryonic stem (ES) cells (acquired from Research Institute of National Center for Geriatrics and Gerontology) derived from the 129Svj mouse, and the drug-resistant colony was selected. The homologous recombinant was identified from the selected resistant colony by Southern blotting. The desired homologous recombinant ES cell clone thus identified was injected into the blastocyst stage embryo of the C57BL/6J mouse, thereby making a chimera mouse. The chimera mouse was mated with the wild type C57BL/6J mouse, thereby making a hetero MAGE-D1 gene-deficient mouse of F1 generation. The wild type C57BL/6J was mated with the hetero MAGE-D1 gene-deficient mouse up to the F10 generation, and the mouse having 99.9 percent (as a result of one mating with the C57BL/6J mouse, about half the genes of the newborn mouse are derived from the C57BL/6J mouse used for mating; in other words, as a result of the n times of mating with the C57BL/6J mouse, about [1−(1/2)^n+1]×100% genes are likely derived from the C57BL/6J mouse) C57BL/6J genetic background was used. The mouse having the genetic background was used as the MAGE-D1 gene-deficient mouse (hereinafter may be referred to as model mouse) in the following test.
as §1, §2

[4] = established lymphocytes from patients with depression to whom the antidepressant was not effective
[5] = 10 mg/kg intraperitoneally 30 minutes before test
[6] = 20 mg/kg intraperitoneally 30 minutes before test
[7] = 5 mg/kg intraperitoneally 30 minutes before test

| SMILES | expression amount of the ubiquitinated serotonin transporter ([1]; established lymphocytes from healthy subjects, control = healthy subjects without MG132) [%] | expression amount of the ubiquitinated serotonin transporter ([1]; established lymphocytes from patients with depression to whom fluvoxamine was effective) [%] | expression amount of the ubiquitinated serotonin transporter [1, 4] [%] | expression amount of the serotonin transporter ([2]; established lymphocytes from healthy subjects) [%] | expression amount of the serotonin transporter ([2]; established lymphocytes from patients with depression to whom the antidepressant was effective) [%] | expression amount of the serotonin transporter [2, 4] [%] | effect of addition on the expression amount of the serotonin transporter ([2]; established lymphocytes of the patients with depression, regardless of effect of the antidepressant) | average of the immobility time ratio (wild type C57BL/6J mouse; [5]) [%] | average of the immobility time ratio (wild type C57BL/6J mouse; [6]) [%] | average of the immobility time ratio [3, 5] [%] | average of the immobility time ratio [3, 6] [%] | effect on the increase of the immobility time [3] | average of the immobility time ratio (wild type C57BL/6J mouse; [7]) [%] | average of the immobility time ratio [3, 7] [%] |
| --- | --- | --- | --- | --- | --- | --- | --- | --- | --- | --- | --- | --- | --- | --- |
| CC(C)C[C@@H](C=O)NC(=O)[C@H](CC(C)C)NC(=O)[C@H](CC(C)C)NC(=O)OCc1ccccc1 [MG132] (Cbz-Leu-Leu-Leu-aldehyde) | 130.6 | 103.4 | 88.5 | 173.8 | 141.9 | 143.6 | did not significantly increase |  |  |  |  |  |  |  |
| CN(C)CCCN1c2ccccc2CCc2ccccc21 [imipramine] |  |  |  |  |  |  |  | 47.7 | 39.0 | 60.2 | 40.6 | significantly and dose-dependently decreased |  |  |
| CN[C@H]1CC[C@@H](c2ccc(Cl)c(Cl)c2)c2ccccc21 [sertraline] |  |  |  |  |  |  |  | 37.7 |  | 45.7 |  | significantly and dose-dependently decreased | 37.4 | 56.3 |
